System: HCV genotype-1a variant with glutamine 30 changed to glutamate in the NS5A protein
Type: cell-based
Conditions: test compound titrated with BMS-790052 fixed at 200 nM; genotype 1a Q30E replicon
In short: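 Synergy was assessed by combining several fixed amounts of an NS5A-targeting compound with a titration of the second compound of interest.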

Row | Structure (SMILES) | Fold-Synergistic 1a (Q30E)
1 | Cc1c(F)cccc1C(=O)N[C@H](c1ncc(-c2ccc(-c3ccc(-c4cnc([C@@H](NC(=O)c5cccc(F)c5C)C(C)C)[nH]4)cc3)cc2)[nH]1)C(C)C [Compound S-97] | >100 fold
2 | CC(C)(C)[C@H](NC(=O)C1CCC(=C(F)F)CC1)c1nc(-c2ccc(-c3ccc(-c4c[nH]c([C@@H](NC(=O)C5CCC(=C(F)F)CC5)C(C)(C)C)n4)cc3)cc2)c[nH]1 (some centres unmarked) [Compound N-121] | >100 fold
3 | CC(C)(C)[C@H](NC(=O)C1CCN(S(C)(=O)=O)CC1)c1nc(-c2ccc(-c3ccc(-c4c[nH]c([C@@H](NC(=O)C5CCN(S(C)(=O)=O)CC5)C(C)(C)C)n4)cc3)cc2)c[nH]1 [Compound S-255] | >100 fold
4 | C[C@H]1C[C@@H](c2nc(-c3ccc(-c4ccc(-c5c[nH]c([C@@H]6C[C@H](C)CN6C(=O)C(=O)N6CCC(F)(F)CC6)n5)cc4)cc3)c[nH]2)N(C(=O)C(=O)N2CCC(F)(F)CC2)C1 [Compound L-143] | >100 fold
5 | CC(C)[C@H](NC(=O)[C@@H]1CCCCO1)c1ncc(-c2ccc(-c3ccc(-c4cnc([C@@H](NC(=O)[C@H]5CCCCO5)C(C)C)[nH]4)cc3)cc2)[nH]1 [Compound Y-56] | >100 fold
6 | CC(C)(C)C(=O)N[C@H](c1nc(-c2ccc(-c3cnc(-c4c[nH]c([C@@H](NC(=O)C(C)(C)C)C(C)(C)C)n4)cn3)cc2)c[nH]1)C(C)(C)C.O=C(O)C(F)(F)F [Compound N-105] | >100 fold
7 | CC(C)(C)OC(=O)N1CCC(F)(F)C[C@H]1C(=O)N[C@H](c1nc(-c2ccc(-c3ccc(-c4c[nH]c([C@@H](NC(=O)[C@@H]5CC(F)(F)CCN5C(=O)OC(C)(C)C)C(C)(C)C)n4)cc3)cc2)c[nH]1)C(C)(C)C [Compound L-21] | >100 fold
8 | CC(C)(C)CC(=O)NC1(C(=O)N[C@H](c2nc(-c3ccc(-c4ccc(-c5c[nH]c([C@@H](NC(=O)C6(NC(=O)CC(C)(C)C)CCCCC6)C(C)(C)C)n5)cc4)cc3)c[nH]2)C(C)(C)C)CCCCC1 [Compound W-254] | >100 fold
9 | C#CCCC(=O)N[C@H](c1ncc(-c2ccc(-c3ccc(-c4cnc([C@@H](NC(=O)CCC#C)C(C)C)[nH]4)cc3)cc2)[nH]1)C(C)C [Compound S-44] | >100 fold
10 | Cc1nn(-c2ccccc2)nc1C(=O)N[C@H](c1ncc(-c2ccc(-c3ccc(-c4cnc([C@@H](NC(=O)c5nn(-c6ccccc6)nc5C)C(C)C)[nH]4)cc3)cc2)[nH]1)C(C)C [Compound S-95] | >10 fold
11 | CC(C)[C@H](NC(=O)N1CCCC1)c1ncc(-c2ccc(-c3ccc(-c4cnc([C@@H](NC(=O)N5CCCC5)C(C)C)[nH]4)cc3)cc2)[nH]1 [Compound S-232] | >100 fold
12 | O=C(c1cc2ccccc2o1)N1CCC[C@H]1c1ncc(-c2ccc(-c3ccc(-c4cnc([C@@H]5CCCN5C(=O)c5cc6ccccc6o5)[nH]4)cc3)cc2)[nH]1 [Compound S-122] | >10 fold
13 | CC(C)(C)OC(=O)N1CCC(C)(C)[C@@H]1C(=O)N[C@H](c1nc(-c2ccc(-c3ccc(-c4c[nH]c([C@@H](NC(=O)[C@@H]5N(C(=O)OC(C)(C)C)CCC5(C)C)C(C)(C)C)n4)cc3)cc2)c[nH]1)C(C)(C)C [Compound W-211] | >100 fold
14 | CC(C)(C)C(NC(=O)C(O)C1CCCCC1)c1nc(-c2ccc(-c3ccc(-c4c[nH]c(C(NC(=O)C(O)C5CCCCC5)C(C)(C)C)n4)cc3)cc2)c[nH]1 [Compound L-74] | >100 fold
15 | COc1ccccc1C(=O)N[C@H](c1nc(-c2ccc(-c3ccc(-c4c[nH]c([C@@H](NC(=O)c5ccccc5OC)C(C)(C)C)n4)cc3)cc2)c[nH]1)C(C)(C)C [Compound P-28] | >100 fold
16 | Cc1cc(CC(=O)N[C@H](c2ncc(-c3ccc(-c4ccc(-c5cnc([C@@H](NC(=O)Cc6cc(C)no6)C(C)C)[nH]5)cc4)cc3)[nH]2)C(C)C)on1 [Compound P-76] | >10 fold
17 | COC(=O)N1C[C@H](F)C[C@@]1(C)C(=O)N[C@H](c1nc(-c2ccc(-c3ccc(-c4c[nH]c([C@@H](NC(=O)[C@]5(C)C[C@@H](F)CN5C(=O)OC)C(C)(C)C)n4)cc3)cc2)c[nH]1)C(C)(C)C [Compound W-210] | >100 fold
18 | CC(C)(C)OC(=O)NC(C)(C)C(=O)N[C@H](c1nc(-c2ccc(-c3ccc(-c4c[nH]c([C@@H](NC(=O)C(C)(C)NC(=O)OC(C)(C)C)C(C)(C)C)n4)cc3)cc2)c[nH]1)C(C)(C)C [Compound L-3] | >100 fold
19 | O=C(c1ccc2c(c1)OCO2)N1CCC[C@H]1c1ncc(-c2ccc(-c3ccc(-c4cnc([C@@H]5CCCN5C(=O)c5ccc6c(c5)OCO6)[nH]4)cc3)cc2)[nH]1 [Compound S-121] | <10 fold

Row | Structure (SMILES) | Fold-Synergistic 1a (Q30E)
20 | CC1(C(=O)NC(c2nc(-c3ccc(-c4ccc(-c5c[nH]c(C(NC(=O)C6(C)CCCC(F)(F)CO6)C(C)(C)C)n5)cc4)cc3)c[nH]2)C(C)(C)C)CCCC(F)(F)CO1 (centres unmarked) [Compound Y-92] | >100 fold
21 | CC(C)(C)[C@H](NC(=O)[C@](C)(O)c1ccccc1)c1nc(-c2ccc(-c3ccc(-c4c[nH]c([C@@H](NC(=O)[C@](C)(O)c5ccccc5)C(C)(C)C)n4)cc3)cc2)c[nH]1 [Compound L-94] | >100 fold
22 | CC(C)(C)[C@H](NC(=O)C1CCC(F)(F)CC1)c1ncc(-c2ccc3cc4cc(-c5cnc([C@@H](NC(=O)C6CCC(F)(F)CC6)C(C)(C)C)[nH]5)ccc4cc3c2)[nH]1 [Compound B26] | >100 fold
23 | COC1(C(=O)N[C@H](c2nc(-c3ccc(-c4ccc(-c5c[nH]c([C@@H](NC(=O)C6(OC)CC6)C(C)(C)C)n5)cc4)cc3)c[nH]2)C(C)(C)C)CC1 [Compound P-27] | >100 fold
24 | CC(C)(C)OC(=O)N1CCCCC1(C)C(=O)N[C@H](c1nc(-c2ccc(-c3ccc(-c4c[nH]c([C@@H](NC(=O)C5(C)CCCCN5C(=O)OC(C)(C)C)C(C)(C)C)n4)cc3)cc2)c[nH]1)C(C)(C)C (single isomer, unassigned) [Compound L-46b] | >100 fold
25 | COc1ccccc1C(O)C(C)(C)C(=O)N[C@H](c1nc(-c2ccc(-c3ccc(-c4c[nH]c([C@@H](NC(=O)C(C)(C)C(O)c5ccccc5OC)C(C)(C)C)n4)cc3)cc2)c[nH]1)C(C)(C)C (single isomer, unassigned) [Compound N-125C] | >100 fold
26 | CC(C)[C@H](NC(=O)c1ccccc1)c1ncc(-c2ccc(-c3ccc(-c4cnc([C@@H](NC(=O)c5ccccc5)C(C)C)[nH]4)cc3)cc2)[nH]1 [Compound S-5] | >100 fold
27 | CC(C)C(NC(=O)C(=O)N(CC(F)(F)F)C(C)C)c1nc(-c2ccc(-c3ccc(-c4c[nH]c(C(NC(=O)C(=O)N(CC(F)(F)F)C(C)C)C(C)C)n4)cc3)cc2)c[nH]1 (centres unmarked) [Compound W-65] | >100 fold
28 | CCN(CC(F)(F)F)C(=O)C(=O)NC(c1nc(-c2ccc(-c3ccc(-c4c[nH]c(C(NC(=O)C(=O)N(CC)CC(F)(F)F)C5CC5)n4)cc3)cc2)c[nH]1)C1CC1 [Compound L-35] | >100 fold
29 | CC(C)(C)C(NC(=O)C1C2COCC21)c1nc(-c2ccc(-c3ccc(-c4c[nH]c(C(NC(=O)C5C6COCC65)C(C)(C)C)n4)cc3)cc2)c[nH]1 [Compound L-67] | >100 fold
30 | CC(C)(C)[C@H](NC(=O)[C@@H]1CCC(=O)N1)c1nc(-c2ccc(-c3ccc(-c4c[nH]c([C@@H](NC(=O)[C@@H]5CCC(=O)N5)C(C)(C)C)n4)cc3)cc2)c[nH]1.O=C(O)C(F)(F)F.O=C(O)C(F)(F)F [Compound L-10] | >10 fold
31 | CC(C)(C)[C@H](NC(=O)C1CCC(F)(F)CC1)c1ncc(-c2ccc([C@@H]3C[C@H]3c3ccc(-c4cnc([C@@H](NC(=O)C5CCC(F)(F)CC5)C(C)(C)C)[nH]4)cc3)cc2)[nH]1 [Compound B-190] | >100 fold
32 | CCCOC(=O)N[C@H](c1ncc(-c2ccc(-c3ccc(-c4cnc([C@@H](NC(=O)OCCC)C(C)C)[nH]4)cc3)cc2)[nH]1)C(C)C [Compound S-208] | >100 fold
33 | CC(C)(C)C(=O)NC1(C(=O)N[C@H](c2nc(-c3ccc(-c4ccc(-c5c[nH]c([C@@H](NC(=O)C6(NC(=O)C(C)(C)C)CCCCC6)C(C)(C)C)n5)cc4)cc3)c[nH]2)C(C)(C)C)CCCCC1 [Compound W-262] | >100 fold
34 | CC(C)(CC(F)(F)F)C(=O)N[C@H](c1nc(-c2ccc(-c3ccc(-c4c[nH]c([C@@H](NC(=O)C(C)(C)CC(F)(F)F)C(C)(C)C)n4)cc3)cc2)c[nH]1)C(C)(C)C [Compound Y-8] | >100 fold
35 | COC(C)(CCOCc1ccccc1)C(=O)N[C@H](c1nc(-c2ccc(-c3ccc(-c4c[nH]c([C@@H](NC(=O)C(C)(CCOCc5ccccc5)OC)C(C)(C)C)n4)cc3)cc2)c[nH]1)C(C)(C)C (single isomer, unassigned) [Compound W-256b] | >100 fold
36 | CCCCC(=O)N[C@H](c1ncc(-c2ccc(-c3ccc(-c4cnc([C@@H](NC(=O)CCCC)C(C)C)[nH]4)cc3)cc2)[nH]1)C(C)C [Compound S-45] | >100 fold
37 | CC(C)[C@H](NC(=O)c1ccc(Cl)s1)c1ncc(-c2ccc(-c3ccc(-c4cnc([C@@H](NC(=O)c5ccc(Cl)s5)C(C)C)[nH]4)cc3)cc2)[nH]1 [Compound P-91] | >100 fold
38 | COc1ccc(C(=O)C(=O)N[C@H](c2ncc(-c3ccc(-c4ccc(-c5cnc([C@@H](NC(=O)C(=O)c6ccc(OC)c(Cl)c6)C(C)C)[nH]5)cc4)cc3)[nH]2)C(C)C)cc1Cl [Compound P-113] | >100 fold

Reference: patent US20160158200A1, “Combinations of Hepatitis C Virus Inhibitors” (priority 2013, published 2016)
